From ChEMBL document CHEMBL4823289, “Conformational-Analysis-Guided Discovery of 2,3-Disubstituted Pyridine IDO1 Inhibitors” (ACS Med Chem Lett, 2021)

Columns and labels:
[1] = AUC in cynomolgus monkey at 5 mg/kg, po; format: ADME, organism-based, Macaca fascicularis; design: dose 5 mg/kg; details: in vivo
[2] = AUC in rat at 0.5 mg/kg, iv; format: ADME, organism-based; design: dose 0.5 mg/kg; details: in vivo
[3] = AUC in rat at 10 mg/kg, po; format: ADME, organism-based; design: dose 10 mg/kg; details: in vivo
Cytochrome P450 2C8 = biological target: T1, Cytochrome P450 2C8 (Homo sapiens, UniProt P10632); test: Inhibition of human CYP2C8
T1 sequence (P10632 whole entry): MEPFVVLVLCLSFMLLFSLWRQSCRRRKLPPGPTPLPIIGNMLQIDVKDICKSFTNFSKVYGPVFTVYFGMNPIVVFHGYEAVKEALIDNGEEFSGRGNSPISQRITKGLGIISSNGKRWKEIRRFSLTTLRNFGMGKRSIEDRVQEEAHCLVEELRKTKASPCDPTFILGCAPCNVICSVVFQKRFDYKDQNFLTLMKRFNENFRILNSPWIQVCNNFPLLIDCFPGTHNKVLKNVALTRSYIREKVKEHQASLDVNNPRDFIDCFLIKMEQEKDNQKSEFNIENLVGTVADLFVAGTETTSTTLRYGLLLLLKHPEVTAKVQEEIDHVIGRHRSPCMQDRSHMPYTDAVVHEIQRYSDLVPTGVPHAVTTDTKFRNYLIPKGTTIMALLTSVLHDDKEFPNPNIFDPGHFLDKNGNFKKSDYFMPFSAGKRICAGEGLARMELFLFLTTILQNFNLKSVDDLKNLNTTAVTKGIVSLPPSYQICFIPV

[4] = test system: UDP-glucuronosyltransferases (UGT); test: Metabolic stability assessed as mouse UGT-mediated metabolism by measuring half life; format: ADME
[5] = biological target: T2, Indoleamine 2,3-dioxygenase 1 (Homo sapiens, UniProt P14902); test: Inhibition of IDO1 in IFNgamma-stimulated human HeLa cells preincubated for 2 hrs followed by recombinant human IFNgamma stimulation and measured after 18 hrs by fluorescence based microplate reader assay
[6] = Oral bioavailability in dog at 5 mg/kg; format: ADME, organism-based, Canis lupus familiaris; details: in vivo
[7] = Clearance in mouse at 1 mg/kg, iv; format: ADME, organism-based; details: in vivo
[8] = AUC (0 to 24 hrs) in human SK-OV-3 cells xenografted in nu/nu mouse xenograft model measured in tumor at 20 mg/kg, po QD; format: ADME, organism-based; design: time < 24 hr, route oral, dose 20 mg/kg
Cytochrome P450 (CYP) [9] = test: Metabolic stability assessed as dog CYP-mediated metabolism by measuring half life; format: ADME, Canis lupus familiaris
[10] = Metabolic stability in rat liver microsomes assessed as parent compound remaining at 0.5 uM after 10 mins incubation by LC-MS/MS analysis relative to control; format: ADME, Microsome; details: read-out: Activity
[11] = AUC in mouse at 1 mg/kg, iv; format: ADME, organism-based; design: dose 1 mg/kg; details: in vivo
[12] = biological target: UDP-glucuronosyltransferases (UGT) (Homo sapiens, UniProt O60656+O75310+O75795+P06133+P0DTE4+P0DTE5+P16662+P19224+P22309+P22310+P35503+P35504+P36537+P54855+Q6UWM9+Q9BY64+Q9HAW7+Q9HAW8+Q9HAW9); test: Metabolic stability assessed as human UGT-mediated metabolism by measuring half life; format: ADME, protein assay
[13] = Drug metabolism in dog hepatocytes assessed as demethylated metabolite formation; format: ADME, cell-based, Canis lupus familiaris, Hepatocyte
Cytochrome P450 (CYP) [14] = test: Metabolic stability assessed as rat CYP-mediated metabolism by measuring half life; format: ADME
[15] = Drug metabolism in rat hepatocytes assessed as demethylated metabolite formation; format: ADME, cell-based, Hepatocyte
[16] = test system: UDP-glucuronosyltransferases (UGT); test: Metabolic stability assessed as dog UGT-mediated metabolism by measuring half life; format: ADME, Canis lupus familiaris
[17] = Clearance in rat at 0.5 mg/kg, iv; format: ADME, organism-based; details: in vivo
[18] = test system: UDP-glucuronosyltransferases (UGT); test: Metabolic stability assessed as rat UGT-mediated metabolism by measuring half life; format: ADME
[19] = biological target: Voltage-gated inwardly rectifying potassium channel KCNH2 (Homo sapiens, UniProt Q12809); test: Inhibition of hERG (unknown origin)
[20] = Apparent permeability across basolateral to apical side in human Caco-2 cells; format: ADME, cell-based
[21] = Clearance in cynomolgus monkey at 1 mg/kg, iv; format: ADME, organism-based, Macaca fascicularis; details: in vivo
[22] = Oral bioavailability in rat at 10 mg/kg; format: ADME, organism-based; details: in vivo
[23] = Half life in dog at 1 mg/kg, iv; format: ADME, organism-based, Canis lupus familiaris; details: in vivo
[24] = AUC in mouse at 10 mg/kg, po; format: ADME, organism-based; design: dose 10 mg/kg; details: in vivo
[25] = AUC (0 to 24 hrs) in human SK-OV-3 cells xenografted in nu/nu mouse xenograft model measured in tumor at 60 mg/kg, po QD; format: ADME, organism-based; design: time < 24 hr, route oral, dose 60 mg/kg
Cytochrome P450 (CYP) [26] = test: Metabolic stability assessed as cynomolgus monkey CYP-mediated metabolism by measuring half life; format: ADME, Macaca fascicularis
[27] = Half life in rat at 0.5 mg/kg, iv; format: ADME, organism-based; details: in vivo
hERG (KCNH2) = hERG (KCNH2) (Homo sapiens, UniProt Q12809); test: Inhibition of hERG (unknown origin) at 30 uM relative to control
[28] = Oral bioavailability in cynomolgus monkey at 5 mg/kg; format: ADME, organism-based, Macaca fascicularis; details: in vivo
[29] = Metabolic stability in human liver microsomes assessed as parent compound remaining at 0.5 uM after 10 mins incubation by LC-MS/MS analysis relative to control; format: ADME, Microsome; details: read-out: Activity
[30] = biological target: Indoleamine 2,3-dioxygenase 1 (Mus musculus, UniProt P28776); test: Inhibition of IDO1 in IFNgamma-stimulated mouse M109 cells preincubated for 2 hrs followed by recombinant murine IFNgamma stimulation and measured after 18 hrs by fluorescence based microplate reader assay; format: cell-based
Cytochrome P450 2C9 = Cytochrome P450 2C9 (Homo sapiens, UniProt P11712); test: Inhibition of human CYP2C9
[31] = AUC in cynomolgus monkey at 1 mg/kg, iv; format: ADME, organism-based, Macaca fascicularis; design: dose 1 mg/kg; details: in vivo
[32] = Half life in cynomolgus monkey at 1 mg/kg, iv; format: ADME, organism-based, Macaca fascicularis; details: in vivo
Cytochrome P450 2C19 = Cytochrome P450 2C19 (Homo sapiens, UniProt P33261); test: Inhibition of human CYP2C19
[33] = Clearance in dog at 1 mg/kg, iv; format: ADME, organism-based, Canis lupus familiaris; details: in vivo
[34] = AUC in dog at 1 mg/kg, iv; format: ADME, organism-based, Canis lupus familiaris; design: dose 1 mg/kg; details: in vivo
Cytochrome P450 (CYP) [35] = biological target: Cytochrome P450 (CYP) (Homo sapiens, UniProt P04798+P05177+P05181+P08684+P10632+P10635+P11509+P11712+P13584+P20813+P20815+P20853+P24462+P24903+P33260+P33261+P51589+P78329+P98187+Q02928+Q08477+Q16678+Q16696+Q5TCH4+Q6VVX0+Q7Z449+Q8TAV3+Q96SQ9+Q9HB55); test: Metabolic stability assessed as human CYP-mediated metabolism by measuring half life; format: ADME, protein assay
[36] = Apparent permeability across apical to basolateral side in human Caco-2 cells; format: ADME, cell-based
[37] = Volume of steady state distribution in cynomolgus monkey at 1 mg/kg, iv; format: ADME, organism-based, Macaca fascicularis; details: in vivo, read-out: Vdss
[38] = AUC (0 to 24 hrs) in nu/nu mouse xenograft model xenografted with human SK-OV-3 cells measured in tumor at 180 mg/kg, po QD; format: ADME, organism-based; design: time < 24 hr, route oral, dose 180 mg/kg
[39] = Volume of steady state distribution in mouse at 1 mg/kg, iv; format: ADME, organism-based; details: in vivo, read-out: Vdss
Cytochrome P450 (CYP) [40] = test: Metabolic stability assessed as mouse CYP-mediated metabolism by measuring half life; format: ADME
[41] = biological target: T2, Indoleamine 2,3-dioxygenase 1; test: Inhibition of IDO1 in IFNgamma/LPS-stimulated human whole blood preincubated for 4 hrs followed by IFNgamma/LPS stimulation and incubated for 18 hrs by Rapid-fire mass spectrometry analysis; format: tissue-based
[42] = Drug metabolism in human hepatocytes assessed as demethylated metabolite formation; format: ADME, cell-based, Hepatocyte
[43] = Volume of steady state distribution in rat at 0.5 mg/kg, iv; format: ADME, organism-based; details: in vivo, read-out: Vdss
[44] = Oral bioavailability in mouse at 10 mg/kg; format: ADME, organism-based; details: in vivo
[45] = Drug metabolism in cynomolgus monkey hepatocytes assessed as demethylated metabolite formation; format: ADME, cell-based, Macaca fascicularis, Hepatocyte
[46] = Half life in mouse at 1 mg/kg, iv; format: ADME, organism-based; details: in vivo
[47] = test system: UDP-glucuronosyltransferases (UGT); test: Metabolic stability assessed as cynomolgus monkey UGT-mediated metabolism by measuring half life; format: ADME, Macaca fascicularis
[48] = AUC in dog at 5 mg/kg, po; format: ADME, organism-based, Canis lupus familiaris; design: dose 5 mg/kg; details: in vivo
[49] = Apparent permeability of the compound at pH 7.4 by PAMPA; format: ADME
[50] = Metabolic stability in mouse liver microsomes assessed as parent compound remaining at 0.5 uM after 10 mins incubation by LC-MS/MS analysis relative to control; format: ADME, Microsome; details: read-out: Activity
[51] = AUC (0 to 24 hrs) in human SK-OV-3 cells xenografted in nu/nu mouse xenograft model measured in tumor at 120 mg/kg, po QD; format: ADME, organism-based; design: time < 24 hr, route oral, dose 120 mg/kg
[52] = Volume of steady state distribution in dog at 1 mg/kg, iv; format: ADME, organism-based, Canis lupus familiaris; details: in vivo, read-out: Vdss

T2 sequence (P14902 whole entry): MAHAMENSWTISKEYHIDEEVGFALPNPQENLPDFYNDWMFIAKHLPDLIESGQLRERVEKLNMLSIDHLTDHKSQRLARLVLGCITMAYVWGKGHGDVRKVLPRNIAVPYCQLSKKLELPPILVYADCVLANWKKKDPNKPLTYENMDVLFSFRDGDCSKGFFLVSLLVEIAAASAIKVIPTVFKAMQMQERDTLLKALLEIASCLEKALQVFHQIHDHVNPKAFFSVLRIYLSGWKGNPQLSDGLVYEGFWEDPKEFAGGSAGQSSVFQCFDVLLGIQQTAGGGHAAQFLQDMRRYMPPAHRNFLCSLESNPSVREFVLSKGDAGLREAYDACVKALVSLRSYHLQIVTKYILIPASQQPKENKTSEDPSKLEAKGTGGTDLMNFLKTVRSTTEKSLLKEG
Indoleamine 2,3-dioxygenase 1 (Mus musculus, UniProt P28776), sequence (P28776 whole entry): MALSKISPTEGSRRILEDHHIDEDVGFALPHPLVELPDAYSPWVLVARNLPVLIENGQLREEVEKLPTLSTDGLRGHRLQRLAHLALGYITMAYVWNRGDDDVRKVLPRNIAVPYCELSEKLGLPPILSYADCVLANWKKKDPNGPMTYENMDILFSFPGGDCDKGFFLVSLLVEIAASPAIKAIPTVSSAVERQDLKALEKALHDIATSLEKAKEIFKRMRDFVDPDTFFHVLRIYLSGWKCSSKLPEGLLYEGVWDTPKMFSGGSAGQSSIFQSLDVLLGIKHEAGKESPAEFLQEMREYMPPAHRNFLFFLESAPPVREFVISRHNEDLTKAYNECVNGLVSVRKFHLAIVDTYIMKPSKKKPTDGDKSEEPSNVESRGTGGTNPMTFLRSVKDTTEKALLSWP
Voltage-gated inwardly rectifying potassium channel KCNH2, sequence (Q12809 whole entry): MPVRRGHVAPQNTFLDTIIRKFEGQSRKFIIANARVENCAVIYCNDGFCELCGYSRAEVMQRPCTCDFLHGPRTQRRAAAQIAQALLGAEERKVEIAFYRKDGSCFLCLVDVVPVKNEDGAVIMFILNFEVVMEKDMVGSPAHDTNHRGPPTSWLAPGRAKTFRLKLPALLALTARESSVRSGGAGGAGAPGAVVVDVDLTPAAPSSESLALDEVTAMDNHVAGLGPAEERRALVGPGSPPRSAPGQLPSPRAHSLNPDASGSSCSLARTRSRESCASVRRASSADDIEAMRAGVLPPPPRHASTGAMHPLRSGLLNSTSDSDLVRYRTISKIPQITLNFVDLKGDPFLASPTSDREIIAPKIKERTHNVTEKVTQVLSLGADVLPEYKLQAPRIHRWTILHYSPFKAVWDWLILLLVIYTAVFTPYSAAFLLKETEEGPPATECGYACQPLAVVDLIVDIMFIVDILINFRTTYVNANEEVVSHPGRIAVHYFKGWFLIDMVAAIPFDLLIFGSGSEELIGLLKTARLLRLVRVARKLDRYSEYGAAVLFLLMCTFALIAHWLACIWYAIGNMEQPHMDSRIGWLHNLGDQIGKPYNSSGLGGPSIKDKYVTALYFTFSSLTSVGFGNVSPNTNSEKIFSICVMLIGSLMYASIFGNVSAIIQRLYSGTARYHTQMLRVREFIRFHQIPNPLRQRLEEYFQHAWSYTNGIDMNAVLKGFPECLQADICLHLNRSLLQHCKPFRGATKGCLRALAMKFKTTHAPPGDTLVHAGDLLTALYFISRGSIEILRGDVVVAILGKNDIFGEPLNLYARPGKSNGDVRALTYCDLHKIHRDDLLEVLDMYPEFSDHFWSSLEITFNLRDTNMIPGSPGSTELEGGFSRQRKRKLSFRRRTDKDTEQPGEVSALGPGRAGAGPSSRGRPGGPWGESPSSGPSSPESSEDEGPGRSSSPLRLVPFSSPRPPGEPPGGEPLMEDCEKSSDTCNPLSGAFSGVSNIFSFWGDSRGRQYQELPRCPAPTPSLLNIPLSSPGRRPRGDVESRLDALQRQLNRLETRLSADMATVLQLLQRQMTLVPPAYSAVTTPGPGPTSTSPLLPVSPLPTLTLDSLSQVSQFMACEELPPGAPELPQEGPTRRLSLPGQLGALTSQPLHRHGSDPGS
hERG (KCNH2), sequence (Q12809 whole entry): as above
Cytochrome P450 2C9, sequence (P11712 whole entry): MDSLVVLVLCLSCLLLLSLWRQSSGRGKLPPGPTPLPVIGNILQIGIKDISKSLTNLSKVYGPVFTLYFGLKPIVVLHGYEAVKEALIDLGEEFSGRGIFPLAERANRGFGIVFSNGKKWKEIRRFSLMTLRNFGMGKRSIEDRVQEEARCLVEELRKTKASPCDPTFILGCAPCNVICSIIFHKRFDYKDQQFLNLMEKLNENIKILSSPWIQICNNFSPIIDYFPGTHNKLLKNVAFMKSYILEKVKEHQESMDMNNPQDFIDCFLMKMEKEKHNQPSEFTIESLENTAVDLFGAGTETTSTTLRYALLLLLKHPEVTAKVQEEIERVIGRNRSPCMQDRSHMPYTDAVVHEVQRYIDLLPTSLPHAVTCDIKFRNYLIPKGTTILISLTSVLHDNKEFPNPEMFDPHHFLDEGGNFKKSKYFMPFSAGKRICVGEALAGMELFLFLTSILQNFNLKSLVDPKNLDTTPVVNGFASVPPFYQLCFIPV
Cytochrome P450 2C19, sequence (P33261 whole entry): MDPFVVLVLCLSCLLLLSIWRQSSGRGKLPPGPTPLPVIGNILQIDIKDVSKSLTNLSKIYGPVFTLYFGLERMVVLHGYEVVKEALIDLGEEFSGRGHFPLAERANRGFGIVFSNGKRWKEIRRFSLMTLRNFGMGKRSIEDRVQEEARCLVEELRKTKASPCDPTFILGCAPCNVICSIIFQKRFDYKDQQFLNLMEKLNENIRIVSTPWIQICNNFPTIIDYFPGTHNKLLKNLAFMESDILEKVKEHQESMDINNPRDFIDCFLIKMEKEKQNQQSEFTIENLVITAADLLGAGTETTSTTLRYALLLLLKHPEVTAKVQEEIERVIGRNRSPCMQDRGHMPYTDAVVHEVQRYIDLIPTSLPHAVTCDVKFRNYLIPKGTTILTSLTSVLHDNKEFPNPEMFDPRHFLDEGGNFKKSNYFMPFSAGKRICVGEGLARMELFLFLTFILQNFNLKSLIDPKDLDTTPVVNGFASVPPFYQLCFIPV

AUC [1]: 0.029 µM·h
AUC [2]: 1.3 µM·h
AUC [3]: 8.7 µM·h
IC50 (Cytochrome P450 2C8): 4010 nM
half-life [4]: > 2 h
IC50 [5]: 2 nM
bioavailability [6]: 28%
clearance [7]: 33 mL/min/kg
AUC at 24 h [8]: 7.9 µM·h
half-life (Cytochrome P450 (CYP) [9]): 7 min
remaining at 10 min, 0.5 µM [10]: 90%
AUC [11]: 1.2 µM·h
half-life [12]: > 2 h
Drug metabolism [13]: Metabolite_Detected
half-life (Cytochrome P450 (CYP) [14]): 0.333 h
Drug metabolism [15]: Metabolite_Detected
half-life [16]: > 2 h
clearance [17]: 15 mL/min/kg
half-life [18]: > 2 h
Papp B→A [20]: 5.6 ×10⁻⁶ cm/s
clearance [21]: 29 mL/min/kg
bioavailability [22]: 34%
half-life [23]: 14 h
AUC [24]: 3.9 µM·h
AUC at 24 h [25]: 9.2 µM·h
half-life (Cytochrome P450 (CYP) [26]): 3 min
half-life [27]: 7.1 h
F [28]: 4.5%
remaining at 10 min, 0.5 µM [29]: 87%
IC50 [30]: 14 nM
IC50 (Cytochrome P450 2C9): 1890 nM
AUC [31]: 1.3 µM·h
half-life [32]: 11 h
IC50 (Cytochrome P450 2C19): 9500 nM
clearance [33]: 18 mL/min/kg
AUC [34]: 2.3 µM·h
half-life (Cytochrome P450 (CYP) [35]): 0.533 h
Papp A→B [36]: 12.2 ×10⁻⁶ cm/s
Vd [37]: 4.5 L/kg
AUC at 24 h [38]: 13 µM·h
Vd [39]: 6.2 L/kg
half-life (Cytochrome P450 (CYP) [40]): 0.183 h
IC50 [41]: 2.3 nM
Drug metabolism [42]: Metabolite_Detected
Vd [43]: 4 L/kg
bioavailability [44]: 33%
Drug metabolism [45]: Metabolite_Detected
half-life [46]: 5 h
half-life [47]: > 2 h
AUC [48]: 3.2 µM·h
Papp [49]: 107 ×10⁻⁶ cm/s
remaining at 10 min, 0.5 µM [50]: 60%
AUC at 24 h [51]: 13 µM·h
Vd [52]: 9 L/kg
SMILES: CC[C@@H](NC(=O)c1ccc(OC)nc1)[C@H]1CC[C@@H](c2ccnc(OC)c2C(F)F)CC1
IC50 [19]: 17400 nM
inhibition at 30 µM (hERG (KCNH2)): 61%
